Like-named read-outs stand apart in the source and are kept apart here.
Key:
Assay in all cases: Glasshouse assay for herbicidal activity (pre- and post-emergence), percentage phytotoxicity
Assay type in all cases: in vivo
[1] = system: Echinochloa crus-galli (ECHCG); conditions: Echinochloa crus-galli, Rate 250 g/ha, 100%=total damage, 0%=no damage
Description: (§1) Test—Glasshouse Assay for Herbicidal Activity
(§2) Seeds of a variety of monocotyledonous and dicotyledonous test plants are sown in standard soil in pots. The plants are cultivated for one day (for pre-emergence (PRE)) or for about 12 days (for post-emergence (POST)) under controlled conditions in a glasshouse (warm climate species at 24/18° C., cool climate species at 20/16° C., both at day/night; 16 hours light; 65% humidity).
(§3) The test plants are then grown on, in a glasshouse (greenhouse) under controlled conditions (warm climate species at 24/18° C., cool climate species at 20/16° C., both at day/night; 16 hours light; 65% humidity) and are watered twice daily. 15 days after application of the test herbicide (15 DAA) (for post-emergence), and 20 days after application of the test herbicide (20 DAA) (for pre-emergence), the test plants are evaluated visually, and an assessed percentage phytotoxicity score is given for each herbicidal application on each plant species (with 100%=total damage to plant; 0%=no damage to plant).
(§4) The plant species tested are as follows: Alopecurus myosuroides (ALOMY), Avena fatua (AVEFA), Lolium perenne (LOLPE), Echinochloa crus-galli (ECHCG).

[2] = system: Alopecurus myosuroides (ALOMY); conditions: Rate 250 g/ha, 100%=total damage, 0%=no damage; for pest or weed control at 250 g/ha: Alopecurus myosuroides
Description: as §1, §2, §3, §4

[3] = system: Lolium perenne (LOLPE); conditions: Lolium perenne, Rate 250 g/ha, 100%=total damage, 0%=no damage
Description: as §1, §2, §3, §4

[4] = system: Avena fatua (AVEFA); conditions: Avena fatua, Rate 250 g/ha, 100%=total damage, 0%=no damage
Description: as §1, §2, §3, §4

[5] = post-emergence, 360 h, post-emergence, assessed visually 15 DAA, read-out: Post-emergence herbicidal activity (percentage phytotoxicity) ECHCG POST
[6] = pre-emergence, 480 h, pre-emergence, assessed visually 20 DAA, read-out: Pre-emergence herbicidal activity (percentage phytotoxicity) ECHCG PRE
[7] = post-emergence, 360 h, post-emergence, assessed visually 15 DAA, read-out: Post-emergence herbicidal activity (percentage phytotoxicity) ALOMY POST
[8] = pre-emergence, 480 h, pre-emergence, assessed visually 20 DAA, read-out: Pre-emergence herbicidal activity (percentage phytotoxicity) ALOMY PRE
[9] = post-emergence, 360 h, post-emergence, assessed visually 15 DAA, read-out: Post-emergence herbicidal activity (percentage phytotoxicity) LOLPE POST
[10] = pre-emergence, 480 h, pre-emergence, assessed visually 20 DAA, read-out: Pre-emergence herbicidal activity (percentage phytotoxicity) LOLPE PRE
[11] = post-emergence, 360 h, post-emergence, assessed visually 15 DAA, read-out: Post-emergence herbicidal activity (percentage phytotoxicity) AVEFA POST
[12] = pre-emergence, 480 h, pre-emergence, assessed visually 20 DAA, read-out: Pre-emergence herbicidal activity (percentage phytotoxicity) AVEFA PRE

Compound	pest or weed control at 250 g/ha [1, 5]	pest or weed control at 250 g/ha [1, 6]	pest or weed control at 250 g/ha [2, 7]	pest or weed control at 250 g/ha [2, 8]	pest or weed control at 250 g/ha [3, 9]	pest or weed control at 250 g/ha [3, 10]	pest or weed control at 250 g/ha [4, 11]	pest or weed control at 250 g/ha [4, 12]	Pre-emergence herbicidal activity (percentage phytotoxicity) ALOMY PRE ([2]; pre-emergence, assessed visually 20 DAA)
Cc1cc(-c2ncc(Cl)cc2F)cc(C)c1C1C(=O)CC(CC(=O)NCc2cccs2)C1=O (stereo not drawn) [Compound A125]	100%	100%	90%	70%	100%	90%	100%	80%	–
COc1ccccc1CNC(=O)CC1CC(=O)C(c2c(C)cc(-c3ncc(Cl)cc3F)cc2C)C1=O (stereo not drawn) [Compound A126]	100%	100%	30%	30%	80%	80%	90%	50%	–
Cc1cc(-c2ncc(Cl)cc2F)cc(C)c1C1C(=O)CC(CC(=O)NCc2ccsc2Br)C1=O (stereo not drawn) [Compound A127]	100%	60%	70%	0%	90%	60%	70%	20%	–
Cc1cc(-c2ncc(Cl)cc2F)cc(C)c1C1C(=O)CC(CC(=O)NCc2cnc(Cl)s2)C1=O (stereo not drawn) [Compound A128]	100%	100%	100%	80%	100%	90%	100%	80%	–
Cc1cc(-c2ncc(Cl)cc2F)cc(C)c1C1C(=O)CC(CC(=O)NCc2cncs2)C1=O (stereo not drawn) [Compound A129]	90%	–	50%	–	20%	–	70%	–	–
Cc1cc(-c2ncc(Cl)cc2F)cc(C)c1C1C(=O)CC(CC(=O)NCc2ccsc2)C1=O (stereo not drawn) [Compound A130]	100%	100%	90%	70%	100%	90%	100%	90%	–
Cc1ccsc1CNC(=O)CC1CC(=O)C(c2c(C)cc(-c3ncc(Cl)cc3F)cc2C)C1=O (stereo not drawn) [Compound A131]	100%	100%	90%	40%	100%	70%	100%	50%	–
Cc1cc(-c2ccc(Cl)cn2)cc(C)c1C1C(=O)CC(CC(=O)NCc2ncccc2Cl)C1=O (stereo not drawn) [Compound A132]	100%	100%	100%	90%	100%	90%	100%	90%	–
Cc1cc(-c2cnc(Cl)cn2)cc(C)c1C1C(=O)CC(CC(=O)NCc2cccc(C(F)(F)F)c2)C1=O (stereo not drawn) [Compound A133]	100%	90%	90%	–	80%	80%	100%	90%	30%
Cc1cc(-c2ccc(Cl)cn2)cc(C)c1C1C(=O)CC(CC(=O)NCc2cccc(Cl)c2)C1=O (stereo not drawn) [Compound A134]	100%	90%	90%	70%	100%	80%	90%	90%	–
Cc1cc(-c2ncc(Cl)cc2Cl)cc(C)c1C1C(=O)CC(CC(=O)NCc2cccc(Cl)c2)C1=O (stereo not drawn) [Compound A135]	100%	60%	90%	20%	90%	70%	100%	30%	–
Cc1cc(-c2ncc(F)cn2)cc(C)c1C1C(=O)CC(CC(=O)NCc2ccc(C(F)(F)F)nc2)C1=O (stereo not drawn) [Compound A136]	100%	90%	100%	80%	90%	80%	100%	90%	–
Cc1cc(-n2cc(Cl)cn2)cc(C)c1C1C(=O)CC(CC(=O)NCC(=O)c2ccccc2)C1=O (stereo not drawn) [Compound A137]	90%	70%	40%	60%	60%	70%	70%	60%	–
Cc1cc(-c2ncc(Cl)cn2)cc(C)c1C1C(=O)CC(CC(=O)NCc2cccs2)C1=O (stereo not drawn) [Compound A139]	20%	90%	10%	0%	10%	0%	30%	0%	–
Cc1cc(-c2ncc(F)cn2)cc(C)c1C1C(=O)CC(CC(=O)NCc2ncccc2Cl)C1=O (stereo not drawn) [Compound A140]	100%	100%	100%	90%	90%	100%	100%	100%	–
Cc1cc(-c2ncc(F)cn2)cc(C)c1C1C(=O)CC(CC(=O)NCc2cccs2)C1=O (stereo not drawn) [Compound A141]	100%	100%	90%	90%	90%	100%	100%	90%	–
Cc1cc(-c2cncnc2)cc(C)c1C1C(=O)CC(CC(=O)NCc2ncccc2Cl)C1=O (stereo not drawn) [Compound A143]	40%	10%	–	0%	20%	10%	–	0%	–
CC#Cc1cc(C)c(C2C(=O)CC(CC(=O)NCc3cnc(C)cn3)C2=O)c(C)c1 (stereo not drawn) [Compound A144]	100%	100%	80%	80%	90%	90%	100%	90%	–
Cc1cnc(CNC(=O)CC2CC(=O)C(c3c(C)cc(-c4cncnc4)cc3C)C2=O)cn1 (stereo not drawn) [Compound A147]	60%	–	20%	–	0%	–	20%	–	–
Cc1cc(-c2cnc(Cl)cn2)cc(C)c1C1C(=O)CC(CC(=O)NCc2cccs2)C1=O (stereo not drawn) [Compound A148]	100%	100%	70%	70%	90%	80%	100%	80%	–
